What is called IC50 is the midpoint of a concentration-inhibition curve.

Data set [1] has as its target SOS1 (Homo sapiens (Human), UniProt Q07889). Description: Ras-SOS interaction assay (HTRF). Format: biochemical. A general note: Time-resolved FRET reads energy transfer from a long-lived donor to a nearby acceptor.
The test system of data set [2] is MIA PaCa-2 cells (K-Ras G12C). Description: Ras-SOS cellular growth inhibition assay (CellTiter-Glo, 3D). Format: cell-based. Particulars: Homo sapiens. In outline:
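MIA PaCa-2 cells grown in ultra-low-attachment plates (3D) in DMEM/Ham's F12 with 10% FCS and 2.5% horse serum, treated the day after seeding with a 9-point 3-fold compound series for about 5 days. Viability by CellTiter-Glo luminescence; IC50 from four-parameter fit.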
Background: ATP-based viability assays read luminescence as a measure of living cells.

For data set [3], the system named is NCI-H1975 cells (EGFR T790M L858R). Description: EGFR-SOS cellular inhibition assay (CellTiter-Glo, 3D). Format: cell-based. Particulars: Homo sapiens.
Data set [4] is described as follows: In vitro plasma protein binding (PPB). Format: in vitro ADME. Particulars: percentage of free/unbound compound.
Where [5] appears, read: K-RasG13D utilized, read-out: IC50 inhibition of SOS.
The mark [6] stands for this setting: K-RasG13D, read-out: IC50 value against SOS1.
[7] abbreviates: MIA PaCa-2, 120 h, MIA PaCa-2, 3D proliferation, about 5 days, read-out: Bio-Cell-Prolif-3D (MiaPaca2 IC50).
Setting [8] is: MIA PaCa-2, MIA PaCa-2, read-out: IC50 in inhibiting MIA PaCa-2 cell growth.
Where [9] appears, read: 120 h, NCI-H1975, 3D proliferation, about 5 days, read-out: Bio-Cell-Prolif-3D (H1975 IC50).
[10] abbreviates: NCI-H1975, EGFR T790M L858R, read-out: IC50 in inhibiting growth of NCI-H1975 cell line.

Read-outs that look alike come from different tables or passages of the source.

Sequence of SOS1 (Q07889 564-1049): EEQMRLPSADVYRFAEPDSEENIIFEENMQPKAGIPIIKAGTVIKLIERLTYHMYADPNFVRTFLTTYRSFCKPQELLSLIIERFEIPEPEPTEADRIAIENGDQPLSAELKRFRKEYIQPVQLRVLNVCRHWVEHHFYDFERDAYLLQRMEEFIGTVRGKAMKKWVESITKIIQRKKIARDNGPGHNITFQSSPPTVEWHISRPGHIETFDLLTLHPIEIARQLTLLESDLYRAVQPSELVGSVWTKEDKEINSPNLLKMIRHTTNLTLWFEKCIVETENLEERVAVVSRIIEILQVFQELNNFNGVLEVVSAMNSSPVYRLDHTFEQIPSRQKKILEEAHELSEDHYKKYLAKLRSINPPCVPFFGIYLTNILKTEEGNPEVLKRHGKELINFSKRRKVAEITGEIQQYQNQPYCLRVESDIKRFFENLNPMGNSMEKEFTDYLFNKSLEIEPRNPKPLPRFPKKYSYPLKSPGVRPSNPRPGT

For `COc1nc2ncnc(N[C@H](C)c3cccc(C(F)(F)F)c3C)c2cc1N1CCN(C(C)C)CC1` [Compound 376, (R)-6-(4-isopropylpiperazin-1-yl)-7-methoxy-N-(1-(2-methyl-3-(trifluoromethyl)phenyl)ethyl)pyrido [2,3-d]pyrimidin-4-anune], the IC50 is under 100 nM in data set [1] (setting [5]); under 50 nM in data set [1] (setting [6]); at most 1000 nM in data set [2] (setting [7]); under 500 nM in data set [2] (setting [8]); at most 1000 nM in data set [3] (setting [9]); under 500 nM in data set [3] (setting [10]). Also, the “DMPK-invitro-PPB (Mouse Unbound) [%]” value in data set [4] was determined as 0.91%.

For `COc1nc2nc(C)nc(N[C@H](C)c3cccc(C(F)(F)F)c3F)c2cc1N1CCS(=O)(=O)CC1` [Compound 305, (R)-4-(4-((1-(2-fluoro-3-(trifluoromethyl)phenyl)ethyl)amino)-7-methoxy-2-methylpyrido[2,3-d]pyrimidin-6-yl)thiomorpholine 1,1-dioxide], the IC50 in data set [1] (setting [5]) was under 100 nM; in data set [1] (setting [6]), under 50 nM; in data set [2] (setting [7]) it was at most 1000 nM; in data set [2] (setting [8]), under 500 nM; in data set [3] (setting [9]), at most 1000 nM; in data set [3] (setting [10]), under 500 nM. For the same compound, the “DMPK-invitro-PPB (Mouse Unbound) [%]” value in data set [4] turned out to be 1.24%.

In the case of `COc1nc2nc(C)nc(N[C@H](C)c3cccc(C(F)(F)C(C)(C)O)c3F)c2cc1N1CCN(C(C)C)CC1` [Compound 322, (R)-1,1-difluoro-1-(2-fluoro-3-(1-((6-(4-isopropylpiperazin-1-yl)-7-methoxy-2-methylpyrido[2,3-d]pyrimidin-4-yl)amino)ethyl)phenyl)-2-methylpropan-2-ol], the IC50 in data set [1] (setting [5]) was under 100 nM; in data set [1] (setting [6]), under 50 nM; in data set [2] (setting [7]) it was at most 1000 nM; in data set [2] (setting [8]), under 500 nM; in data set [3] (setting [9]), at most 1000 nM; in data set [3] (setting [10]) it was under 500 nM. Also, the “DMPK-invitro-PPB (Mouse Unbound) [%]” value in data set [4] came to 6.33%.

Consider `COc1nc2ncnc(N[C@H](C)c3cccc(C(F)(F)F)c3F)c2cc1C1CCN(C(C)C)CC1` [Compound 162, (R)-N-(1-(2-fluoro-3-(trifluoromethyl)phenyl)ethyl)-6-(1-isopropylpiperidin-4-yl)-7-methoxypyrido[2,3-d] pyrimidin-4-amine], for which the IC50 in data set [1] (setting [5]) is under 100 nM; in data set [1] (setting [6]) it was under 50 nM; in data set [2] (setting [7]), at most 1000 nM; in data set [3] (setting [9]), at most 1000 nM; in data set [3] (setting [10]), under 500 nM. The “DMPK-invitro-PPB (Mouse Unbound) [%]” value in data set [4] is reported as 2.19%.

Regarding `COc1nc2nc(C)nc(N[C@H](C)c3cccc(C(F)F)c3F)c2cc1N1CCN(C(C)C)CC1` [Compound 109, (R)-N-(1-(3-(difluoromethyl)-2-fluorophenyl)ethyl)-6-(4-isopropylpiperazin-1-yl)-7-methoxy-2-methylpyrido[2,3-d] pyrimidin-4-amine], the IC50 in data set [1] (setting [5]) was under 100 nM; in data set [1] (setting [6]), under 50 nM; in data set [2] (setting [7]), at most 1000 nM; in data set [2] (setting [8]) it was under 500 nM; in data set [3] (setting [9]), at most 1000 nM; in data set [3] (setting [10]) it was under 500 nM. Moreover, in data set [4], the “DMPK-invitro-PPB (Mouse Unbound) [%]” value amounted to 3.51%.

Take `COc1nc2nc(C)nc(N[C@H](C)c3cccc(C(F)(F)F)c3C)c2cc1C1CCN(C(C)C)CC1` [Compound 236, (R)-6-(1-isopropylpiperidin-4-yl)-7-methoxy-2-methyl-N-(1-(2-methyl-3-(trifluoromethyl)phenyl)ethyl)pyrido [2,3-d]pyrimidin-4-amine]: the IC50 in data set [1] (setting [5]) is under 100 nM; in data set [1] (setting [6]) it was under 50 nM; in data set [2] (setting [7]) it was at most 1000 nM; in data set [2] (setting [8]), under 500 nM; in data set [3] (setting [9]), at most 1000 nM; in data set [3] (setting [10]) it was under 500 nM. For the same compound, the “DMPK-invitro-PPB (Mouse Unbound) [%]” value in data set [4] turned out to be 0.11%.

`COc1nc2ncnc(N[C@H](C)c3cccc(C(F)(F)F)c3C)c2cc1C1CCN(C2CCOCC2)CC1` [Compound 374, (R)-7-methoxy-N-(1-(2-methyl-3-(trifluoromethyl)phenyl)ethyl)-6-(1-(tetrahydro-2H-pyran-4-yl)piperidin-4-yl)pyrido[2,3-d]pyrimidin-4-amine]: the half-maximal inhibitory concentration (IC50) in data set [1] (setting [6]) was under 50 nM; in data set [2] (setting [7]), at most 1000 nM; in data set [2] (setting [8]) it was under 500 nM; in data set [3] (setting [9]), at most 1000 nM; in data set [3] (setting [10]), under 500 nM. For the same compound, the “DMPK-invitro-PPB (Mouse Unbound) [%]” value in data set [4] was 0.45%.

Regarding `COc1nc2ncnc(N[C@H](C)c3cccc(C(F)(F)C(C)(C)O)c3)c2cc1N1CCN(C(C)C)CC1` [Compound 202, (R)-1,1-difluoro-1-(3-(1-((6-(4-isopropylpiperazin-1-yl)-7-methoxypyrido [2,3-d]pyrimidin-4-yl)amino)ethyl)phenyl)-2-methylpropan-2-ol], the IC50 in data set [1] (setting [5]) is under 100 nM; in data set [1] (setting [6]), under 50 nM; in data set [2] (setting [7]), at most 1000 nM; in data set [2] (setting [8]), under 500 nM; in data set [3] (setting [9]) it was at most 1000 nM; in data set [3] (setting [10]) it was under 500 nM. Besides, in data set [4], the “DMPK-invitro-PPB (Mouse Unbound) [%]” value was found to be 19.85%.

On to `COc1nc2nc(C)nc(N[C@H](C)c3cccc(C(C)(F)F)c3F)c2cc1C1CCS(=O)(=O)CC1` [Compound 150, (R)-4-(4-((1-(3-(1,1-difluoroethyl)-2-fluorophenyl)ethyl)amino)-7-methoxy-2-methylpyrido[2,3-d]pyrimidin-6-yl)tetrahydro-2H-thiopyran 1,1-dioxide], for which the IC50 in data set [1] (setting [6]) was under 50 nM; in data set [2] (setting [7]), at most 1000 nM; in data set [2] (setting [8]) it was under 500 nM; in data set [3] (setting [9]), at most 1000 nM; in data set [3] (setting [10]), under 500 nM. The “DMPK-invitro-PPB (Mouse Unbound) [%]” value in data set [4] was 2.65%.

Consider `COc1nc2ncnc(N[C@H](C)c3cccc(C(F)F)c3F)c2cc1N1CCN(C(C)C)CC1` [Compound 316, (R)-N-(1-(3-(difluoromethyl)-2-fluorophenyl)ethyl)-6-(4-isopropylpiperazin-1-yl)-7-methoxypyrido[2,3-d]pyrimidin-4-amine], for which the IC50 in data set [1] (setting [5]) was under 100 nM; in data set [1] (setting [6]) it was under 50 nM; in data set [2] (setting [7]), 1000 to 10000 nM; in data set [3] (setting [9]), at most 1000 nM; in data set [3] (setting [10]), under 500 nM. Further, the “DMPK-invitro-PPB (Mouse Unbound) [%]” value in data set [4] is reported as 9.83%.

For the compound `COc1nc2nc(C)nc(N[C@H](C)c3cccc(C(F)(F)F)c3F)c2cc1C1CCN(C(C)C)CC1` [Compound 287, (R)-N-(1-(2-fluoro-3-(trifluoromethyl)phenyl)ethyl)-6-(1-isopropylpiperidin-4-yl)-7-methoxy-2-methylpyrido[2,3-d]pyrimidin-4-amine], the IC50 in data set [1] (setting [5]) is under 100 nM; in data set [1] (setting [6]) it was under 50 nM; in data set [2] (setting [7]), at most 1000 nM; in data set [2] (setting [8]) it was under 500 nM; in data set [3] (setting [9]), at most 1000 nM; in data set [3] (setting [10]), under 500 nM. The “DMPK-invitro-PPB (Mouse Unbound) [%]” value in data set [4] came out at 0.39%.

As to `COc1nc2ncnc(N[C@H](C)c3cccc(C(F)(F)F)c3F)c2cc1C1CCN(C2CCOCC2)CC1` [Compound 164, (R)-N-(1-(2-fluoro-3-(trifluoromethyl)phenyl)ethyl)-7-methoxy-6-(1-(tetrahydro-2H-pyran-4-yl)piperidin-4-yl)pyrido[2,3-d]pyrimidin-4-amine], the IC50 in data set [1] (setting [5]) is under 100 nM; in data set [1] (setting [6]), under 50 nM; in data set [2] (setting [7]), at most 1000 nM; in data set [2] (setting [8]) it was under 500 nM; in data set [3] (setting [9]), at most 1000 nM; in data set [3] (setting [10]), under 500 nM. In data set [4], the “DMPK-invitro-PPB (Mouse Unbound) [%]” value was 1.6%.

On to `COc1nc2ncnc(N[C@H](C)c3cccc(C(F)F)c3F)c2cc1N1CCN(C)CC1` [Compound 156, (R)-N-(1-(3-(difluoromethyl)-2-fluorophenyl)ethyl)-7-methoxy-6-(4-methylpiperazin-1-yl)pyrido[2,3-d] pyrimidin-4-amine], for which the IC50 in data set [1] (setting [5]) is under 100 nM; in data set [1] (setting [6]) it was under 50 nM; in data set [2] (setting [7]) it was at most 1000 nM; in data set [2] (setting [8]), under 500 nM; in data set [3] (setting [9]) it was at most 1000 nM; in data set [3] (setting [10]) it was under 500 nM. Moreover, in data set [4], the “DMPK-invitro-PPB (Mouse Unbound) [%]” value was 14.53%.

In the case of `COc1nc2nc(C)nc(N[C@H](C)c3cccc(C(F)(F)F)c3F)c2cc1C1CCS(=O)(=O)CC1` [Compound 120, (R)-4-(4-((1-(2-fluoro-3-(trifluoromethyl)phenyl)ethyl)amino)-7-methoxy-2-methylpyrido[2,3-d]pyrimidin-6-yl)tetrahydro-2H-thiopyran 1,1-dioxide], the IC50 in data set [1] (setting [5]) is under 100 nM; in data set [1] (setting [6]), under 50 nM; in data set [2] (setting [7]), at most 1000 nM; in data set [2] (setting [8]), under 500 nM; in data set [3] (setting [9]), at most 1000 nM; in data set [3] (setting [10]), under 500 nM. The “DMPK-invitro-PPB (Mouse Unbound) [%]” value in data set [4] amounted to 0.73%.

`CCN1CCC(c2cc3c(N[C@H](C)c4cccc(C(F)(F)F)c4C)ncnc3nc2OC)CC1` [Compound 353, (R)-6-(1-ethylpiperidin-4-yl)-7-methoxy-N-(1-(2-methyl-3-(trifluoromethyl)phenyl)ethyl)pyrido [2,3-d]pyrimidin-4-amine]: the concentration for half-maximal inhibition (IC50) in data set [1] (setting [5]) was under 100 nM; in data set [1] (setting [6]), under 50 nM; in data set [2] (setting [7]), at most 1000 nM; in data set [2] (setting [8]), under 500 nM; in data set [3] (setting [9]), at most 1000 nM; in data set [3] (setting [10]), under 500 nM. In addition, the “DMPK-invitro-PPB (Mouse Unbound) [%]” value in data set [4] is reported as 0.74%.

(Values after patent publication US11648254B2 (Kumquat Biosciences Inc., priority 2021, dated 2023).)
